Measured values published in ChEMBL document CHEMBL3580593, “Parthenolide prodrug LC-1 slows growth of intracranial glioma” (Bioorg Med Chem Lett, 2015).
One block for each compound: values may come before it. Active and inactive are the calls of the source. The rule behind the calls is not given here.

Legend:
[1] = Drug uptake in CD1 mouse plasma at 100 mg/kg, po after 4 hrs by LC-MS/MS analysis; assay type: ADME, organism-based
Mus musculus [2] = experiment: Toxicity in C57BL/6 mouse assessed as WBC count at 100 mg/kg, po formulated in HP-beta CD; assay type: organism-based; conditions: in vivo
U-87 MG = experiment: Cytotoxicity against human U87MG cells assessed as cell viability after 48 hrs by Alamar Blue assay; assay type: functional, cell-based, U-87MG ATCC
[3] = Half life in mouse serum; assay type: ADME, cell-free
Mus musculus [4] = experiment: Toxicity in C57BL/6 mouse assessed as platelet count at 100 mg/kg, po formulated in HP-beta CD; assay type: organism-based; conditions: in vivo
Brain [5] = experiment: Drug uptake in CD1 mouse perfused brain assessed as elimination product parthenolide at 100 mg/kg, po after 1 hr by LC-MS/MS analysis; assay type: ADME, organism-based; conditions: in vivo
GL261 [6] = experiment: Antitumor activity in mouse GL261-GFP-Luc cells allografted in C57BL/6J mouse assessed as increase in mouse survival time at 100 mg/kg, po relative to control; assay type: functional, organism-based
[7] = Drug uptake in CD1 mouse perfused brain at 100 mg/kg, po after 1 hr by LC-MS/MS analysis; assay type: ADME, organism-based; conditions: read-out: Drug uptake
[8] = Drug uptake in CD1 mouse plasma at 100 mg/kg, po after 1 hr by LC-MS/MS analysis; assay type: ADME, organism-based
Nucleic Acid = experiment: Ratio of drug level in brain to plasma in CD1 mouse assessed as elimination product parthenolide at 100 mg/kg, po after 4 hrs by LC-MS/MS analysis; assay type: ADME, organism-based
GL261 [9] = experiment: Antitumor activity in mouse GL261-GFP-Luc cells allografted in C57BL/6J mouse assessed as delay in tumor growth at 100 mg/kg, po relative to control; assay type: functional, organism-based
Plasma [10] = experiment: Drug uptake in CD1 mouse plasma assessed as elimination product parthenolide at 100 mg/kg, po after 1 hr by LC-MS/MS analysis; assay type: ADME, organism-based; conditions: in vivo
[11] = Cytotoxicity against […] GL261-GFP-Luc cells assessed as cell viability after 48 hrs by Alamar Blue assay; assay type: functional, cell-based; conditions: Mus musculus, GL261, 48 h
Mus musculus [12] = experiment: Toxicity in C57BL/6 mouse assessed as RBC count at 100 mg/kg, po formulated in HP-beta CD; assay type: organism-based; conditions: in vivo
[13] = Ratio of drug level in brain to plasma in CD1 mouse at 100 mg/kg, po after 1 hr by LC-MS/MS analysis; assay type: ADME, organism-based; conditions: read-out: BPR
Plasma [14] = experiment: Drug uptake in CD1 mouse plasma assessed as elimination product parthenolide at 100 mg/kg, po after 4 hrs by LC-MS/MS analysis; assay type: ADME, organism-based; conditions: in vivo
[15] = Ratio of drug level in brain to plasma in Wistar rat at 100 mg/kg, po after 30 mins by UPLC-MS/MS analysis; assay type: ADME, organism-based; conditions: read-out: BPR
[16] = Ratio of drug level in brain to plasma in CD1 mouse at 100 mg/kg, po after 4 hrs by LC-MS/MS analysis; assay type: ADME, organism-based; conditions: read-out: BPR
Mus musculus [17] = experiment: Toxicity in C57BL/6 mouse assessed as hemoglobin level at 100 mg/kg, po formulated in HP-beta CD; assay type: organism-based; conditions: in vivo
[18] = Ratio of drug level in brain to plasma in Wistar rat at 100 mg/kg, po after 3 hrs by UPLC-MS/MS analysis; assay type: ADME, organism-based; conditions: read-out: BPR
Brain [19] = experiment: Drug uptake in CD1 mouse perfused brain assessed as elimination product parthenolide at 100 mg/kg, po after 4 hrs by LC-MS/MS analysis; assay type: ADME, organism-based; conditions: in vivo
[20] = Cytotoxicity against human GBM6 cells assessed as cell viability after 48 hrs by Alamar Blue assay; assay type: functional, cell-based; conditions: GBM6, 48 h
[21] = Drug uptake in CD1 mouse perfused brain at 100 mg/kg, po after 4 hrs by LC-MS/MS analysis; assay type: ADME, organism-based; conditions: read-out: Drug uptake

concentration at 4 h [1]: 115 ng/mL | half-life [3]: 37.8 min | Drug uptake (Brain [5]): 2402 ng/g | concentration at 1 h [7]: 6250 ng/g | concentration at 1 h [8]: 2960 ng/mL | BPR (Nucleic Acid): 0.5 | Cp (Plasma [10]): 2142 ng/mL | Kp at 1 h [13]: 2.1 | Cp (Plasma [14]): 211 ng/mL | Kp at 0.5 h [15]: 1.84 | Kp at 4 h [16]: 3 | Kp at 3 h [18]: 1.91 | Drug uptake (Brain [19]): 113 ng/g | concentration at 4 h [21]: 342 ng/g
Structure (SMILES): C/C1=C\CC[C@@]2(C)O[C@H]2[C@H]2OC(=O)[C@@H](CN(C)C)[C@@H]2CC1
Activity (Mus musculus [2]): Non-toxic | IC50 (U-87 MG): 8.8 µM | Activity (Mus musculus [4]): Non-toxic | Activity (GL261 [6]): Active | Activity (GL261 [9]): Active | IC50 [11]: 6.9 µM | Activity (Mus musculus [12]): Non-toxic | Activity (Mus musculus [17]): Non-toxic | IC50 [20]: 3.5 µM

Structure (SMILES): C=C1C(=O)O[C@@H]2C3O[C@]3(C)CC/C=C(\C)CC[C@@H]12 (stereo partly specified)
IC50 (U-87 MG): 8.8 µM | IC50 [11]: 7.6 µM | IC50 [20]: 3.4 µM
